Experimental data: patent US7550438B2, “Methods for production of growth-promoting proteins and peptides for kidney epithelial cells” (The University of Chicago, priority 1997, dated 2009)
Several values for one entry are separate records, joined by “and”; a condition that tells them apart may be missing. Equal entries are not always repeated. Where two headings read alike, the source gives them in different places.

Columns and labels:
Assay type in all cases: cell-based, African green monkey
[1] = system: monkey kidney epithelial cells of the BSC-1 line; assay: Growth-promoting (mitogenic) activity: number of cells in BSC-1 cultures counted four days after addition; conditions: for EC50: read-out: Growth-Stimulation K½; for stimulation of growth (increase in cell number compared to control at four days): agent alone at maximal mitogenic concentration (14-Ser 0.5 μg/ml; EGF, IGF-I 50 ng/ml; acidic FGF 100 pg/ml; basic FGF 1,000 pg/ml; vasopressin 75 pg/ml; K 10.4 mM; Na 180 mM)
BSC-1 cells [2] = assay: Time of contact with cells required to commit them to accelerated growth (washout, count at four days)
Protocol: Confluent monolayers of BSC-1 cells are prepared as herein and exposed to the 14-Ser peptide (0.5 μg/ml) for different amounts of time (0 to 30 minutes). At the end of the defined exposure period, culture medium containing the mitogen was aspirated, the monolayer was rinsed to remove non-adherent peptide, and fresh medium was added. Four days later the number of cells in the culture was counted.
In these experiments a solution containing the peptide of interest was added to the cell monolayer; culture medium was then aspirated at a specified time thereafter. Then fresh medium without the peptide was added and the number of cells was counted four days later.

BSC-1 cells [3] = assay: Inhibition of WGF and WGF-derived peptide mitogenesis in BSC-1 cells; conditions: TGF-β2 6 ng/ml; exogenous 14-Ser up to 5 μg/ml
Source text: In these studies the pentamers, PQGNH (SEQ ID NO: 36) or YPQGN (SEQ ID NO: 3) were synthesized, purified by HPLC and then assayed for growth-promoting activity. […] Because the pentamers are not mitogenic, when they bind to the site, growth is not observed. After pentamers are bound to the site, the pentamers appear to prevent the hexapeptide from gaining access to the membrane.
Transforming growth factor (TGF)-β2 is an autocrine growth inhibitor secreted by BSC-1 cells that limits proliferation in culture. Exogenous TGF-β2 was added to the culture medium to determine its capacity to inhibit the growth-promoting effect of 14-Ser. TGF-β2 at a concentration of 1 ng/ml was sufficient to abolish the 25% stimulation of growth induced by 14-Ser. At a TGF-β2 concentration of 2 ng/ml, growth was inhibited by 30% in the presence or absence of 14-Ser; at 10 ng/ml, inhibition was 60%.
Because TGF-β2 inhibits proliferation induced by diverse mitogens, a more specific inhibitor was sought. […] Cells were preincubated for 30 minutes with the pentapeptide YPQGN (SEQ ID NO: 3). The culture medium was then aspirated, the monolayer was rinsed, fresh medium was added, and the number of cells counted 4 days later. Preincubation of cells with YPQGN (SEQ ID NO: 3) inhibited the mitogenic effect of the 6-amino acid peptide.

AQPYPQGNHEASYG
EC50 ([1]; + heparin (1 μg/ml)): 40 nM | EC50 ([1]; + keratan sulfate (2 μg/ml for 5 minutes prior to peptide, b158; 10 μg/ml)): 67 nM | stimulation of growth (increase in cell number compared to control at four days) [1]: 25% | stimulation of growth (increase in cell number compared to control at four days) ([1]; listed as 14-Ser Peptide): 25-30% | stimulation of growth (increase in cell number compared to control at four days) ([1]; listed as 14-Ser peptide): 25-30% and 25% | EC50 ([1]; peptide alone, BSC-1 cells, 4 days in culture): 126 nM | exposure time for half-maximal stimulation (BSC-1 cells [2]; 14-Ser 0.5 μg/ml): 1 min | maximal growth stimulation after 2 minutes exposure (BSC-1 cells [2]; 14-Ser 0.5 μg/ml, count at four days): 29% | exposure time sufficient for maximal growth stimulation (commitment time) (BSC-1 cells [2]; peptide then washed off, cells counted four days later): 2 min | reversal of TGF-β2 growth inhibition (BSC-1 cells [3]): did not reverse growth inhibition
